Experimental data from patent US8252543B2, “Method for detecting candidate alzheimer's disease drug” (Tomohiro Chiba, priority 2006, dated 2012).
Entries after “also recorded” stand apart in the source; their conditions may differ. Where no end group is shown, it is not given here.

B1: CNTF: ciliary neurotrophic factor (protein, UniProt P26441 1-200, looked up)
Ciliary neurotrophic factor: MAFTEHSPLTPHRRDLCSRSIWLARKIRSDLTALTESYVKHQGLNKNINLDSADGMPVASTDQWSELTEAERLQENLQAYRTFHVLLARLLEDQQVHFTPTEGDFHQAIHTLLLQVAAFAYQIEELMILLEYKIPRNEADGMPINVGDGGLFEKKLWGLKVLQELSQWTVRSIHDLRFISSHQTGIPARGSHYIANNKKM

Tests used:
[1] = tested on: STAT3; assay: STAT3 phosphorylation in PC12 cells (immunoblot); format: cell-based; conditions: CNTF 50 ng/ml, IL-6 50 ng/ml, Colivelin 100 pM
Procedure: (§1) To examine the ability of Colivelin to phosphorylate STAT3 in vivo, a solvent (FIGS. 3A and 3C) or Colivelin (FIGS. 3B and 3D) was administered transnasally to mice twice at 24 hours-intervals. Brain samples were collected 30 minutes after the final administration, and then fresh frozen sections were prepared therefrom. The sections were then stained with an anti-phospho-STAT3 antibody. […] To examine the effect of Colivelin to phosphorylate STAT3 in vitro, PC12 cells were treated with a vehicle (MQ), CNTF, IL-6, Humanin (HN), D-Ser14-HN (D-14), and Colivelin (Col) for […] for stimulation. Phosphorylated STAT3 and total STAT3 were detected by an immunoblot method (FIG. 3E).
PC12 cells were cultured in DNEM (Wako) containing 10% serum (10%-DMEM). For phosphorylation analysis, PC12 cells (cultured at 1.6×10^5 cells/well in a 6-well plate containing serum-free DMEM for 24 hours) were stimulated with a ciliary neurotrophic factor (CNTF, 50 ng/ml), interleukin-6 (IL-6, 50 ng/ml), HN ([…], D-Ser14-HN (D-14, 10 μM, and Colivelin (100 pM) for 15 minutes. Cells were rinsed once with PBS and then lysed in a buffer solution containing phosphatase inhibitors (50 mM Tris HCl [pH7.4], 150 mM NaCl, 1% Triton-X 100, protease inhibitors, 1 mM EDTA, and phosphatase inhibitor cocktails 1 and 2 [Sigma]). Collected samples were separated by normal SDS-PAGE and were then electrically blotted onto PVDF membranes. Detection was performed using an anti-phospho-STAT3 (1:500 dilution) antibody and horseradish peroxidase (HRP)-labeled anti-rabbit IgG antibody (BioRad Laboratories, Hercules, Calif., U.S.A.). Immunoreactive bands were visualized using ECL Western Blotting Detection Reagents (Amersham Bioscience, Uppsala, Sweden). Immunoreactive bands corresponding to total-STAT3 antibody (1:3000 dilution) were subjected to detection on the identical membrane stripped and then determined to be controls.

[2] = tested on: Tg2576 mice; assay: Y-maze test (YM) in Tg2576 mice; format: in vivo; conditions: Tg2576 mice 15 months of age, nasal administration for 3 weeks (every other day)
Procedure: (§2) Tg2576 mice and wild-type control mice at 15 months of age were tested by Y-maze test (YM) (FIG. 4A, left). […] Mice were then subjected to nasal administration of Colivelin or a vehicle for 3 weeks. Subsequently, mice were again tested by Y-maze test. […] However, Colivelin administration seemed to ameliorate tendencies observed in Tg2576 to which the vehicle had been administered, such as delay in transfer latency, shortened 1 stay, and prolonged time spent in open arm (difficult to fear).
(§3) Y-maze test (YM) was performed as described in the document (Yamada M et al., Behav Brain Res (2005) 164: 139-146). The apparatus for YM is composed of three grey plastic arms (40 cm long, 12 cm high, 3 cm wide at the bottom, and 10 cm wide at the top). Mice were each allowed to explore the maze freely under observation for 8 minutes. Spontaneous alternation behavior % (SA %) is an indication of spatial working memory and is calculated using a ratio of the arm choices differing from the previous two choices to total choices during the run. […] The time between the onset of exploration and entering to the alcove (Entering latency), initiation of drinking from the water tube (Drinking latency), and the number of grid-line crossing during the test were measured Elevated-plus maze (EPM) was performed as described in the document (Kawasumi M et al., Eur J Neurosci (2004) 19: 2826-2838). […]

[3] = tested on: Tg2576 mice; assay: Water-finding task (WFT) in Tg2576 mice; format: in vivo; conditions: nasal administration for 3 weeks (every other day)
Procedure: as §2, §3

[4] = tested on: STAT3; assay: Anti-phospho-STAT3 staining of hippocampus of Tg2576 and wild-type mice after Colivelin administration; format: in vivo; conditions: for STAT3 phosphorylation in Tg2576 hippocampus (anti-phospho-STAT3 staining): Tg2576 mice after 3 weeks nasal administration
Procedure: The brain sections of Tg2576 mice to which Colivelin had been administered were collected, paraffin-embedded samples were prepared therefrom, and then anti-phospho-STAT3 staining was performed. FIGS. 5A and 5B denote wild-type mice to which a vehicle had been administered; FIGS. 5C and 5D denote wild-type mice to which Colivelin had been administered; FIGS. 5E and 5F denote Tg2576 to which the vehicle had been administered; and FIGS. 5G and 5H denote the hippocampus of Tg2576 to which Colivelin had been administered.
Immunohistochemical analysis was performed as described in the document (Yamada M et al., Behav Brain Res (2005) 164: 139-146; Chiba T et al., J Neurosci (2005) 25: 10252-10261). Mice were transcardially perfused with phosphate buffered saline (PBS) and then perfused with 4% paraformaldehyde (PFA). Paraffine-embedded sections or fresh frozen sections, each having a thickness of 10 μm, were prepared. Immunohistochemical detection was performed with anti-phospho-STAT3 antibody (1:100 dilution). Staining images were visualized with the ABC method (Vectastain Elite Kit, Vector, Calif. U.S.A.) or Tyramide signal enhancer kit (Perkin-Elmer).
We confirmed STAT3 activation in the brains of mice to which Colivelin had been nasally administered twice every 24 hours (FIGS. 3A-D). […] We also confirmed STAT3 phosphorylation in an in vitro experiment using PC12 cells. […] To confirm the therapeutic effect of STAT3 activation, an experiment (nasal administration of Colivelin to mice) was conducted for Tg2576 mice, which had been tested by Y-maze test (YM) and confirmed to have memory disorder at 15 months of age (FIG. 4A, left panel). After 3 weeks of administration (administered every other day), their cognitive functions were analyzed by YM, water-finding task (WFT), and elevated-plus maze (EPM). […] We performed phospho-STAT3 immunostaining using the brains of these mice (FIG. 5). We observed significant loss of phospho-STAT3 immunoreactivity in the control Tg2576 mice to which the vehicle had been administered, compared with the wild-type mice.

[5] = tested on: STAT3; assay: STAT3 phosphorylation in mouse brain after transnasal Colivelin (anti-phospho-STAT3 immunohistochemistry); format: in vivo; conditions: mice, transnasal twice at 24 hours-intervals, brain collected 30 minutes after final administration, vs vehicle
Procedure: as §1
Immunohistochemical analysis was performed as described in the document (Yamada M et al., Behav Brain Res (2005) 164: 139-146; Chiba T et al., J Neurosci (2005) 25: 10252-10261). Mice were transcardially perfused with phosphate buffered saline (PBS) and then perfused with 4% paraformaldehyde (PFA). Paraffine-embedded sections or fresh frozen sections, each having a thickness of 10 μm, were prepared. […]
We confirmed STAT3 activation in the brains of mice to which Colivelin had been nasally administered twice every 24 hours (FIGS. 3A-D). […] After 3 weeks of administration (administered every other day), their cognitive functions were analyzed by YM, water-finding task (WFT), and elevated-plus maze (EPM). […]

[6] = tested on: Tg2576 mice; assay: Elevated-plus maze (EPM) in Tg2576 mice; format: in vivo; conditions: nasal administration for 3 weeks (every other day)
Procedure: as §2, §3

[7] = tested on: STAT3; conditions: reported in Hashimoto 2005, Chiba 2005; cited from earlier work

Molecule | STAT3 phosphorylation (phosphorylated STAT3 vs total STAT3, immunoblot) [1] | Spontaneous alternation behavior % (SA %), spatial working memory [2] | WFT indices of memory including drinking latency, entering latency, and crossing [3] | STAT3 phosphorylation in Tg2576 hippocampus (anti-phospho-STAT3 staining) [4] | STAT3 phosphorylation in Tg2576 hippocampus (anti-phospho-STAT3 staining) ([4]; listed as Coliverlin) | STAT3 phosphorylation levels in wild-type hippocampus (anti-phospho-STAT3 staining) ([4]; wild-type mice after Colivelin administration) | STAT3 phosphorylation in cerebral cortex (anti-phospho-STAT3 staining) [5] | STAT3 phosphorylation in hippocampus (anti-phospho-STAT3 staining) [5] | EPM (transfer latency, 1st stay, time spent in open arms) [6] | In vitro STAT3 activation / suppression of cell death [7]
IL-6: interleukin-6 | STAT3 had been phosphorylated; also recorded: STAT3 is phosphorylated | – | – | – | – | – | – | – | – | –
SALLRSIPAPAGASRLLLLTGEIDLP [Colivelin] | STAT3 had been phosphorylated; also recorded: STAT3 is phosphorylated | significantly improved; also recorded: improvement in cognitive functions was confirmed | significant amelioration was observed; also recorded: improvement in cognitive functions was confirmed | levels close to those in the case of wild-type mice to which the vehicle had been administered | recovery of phospho-STAT3 immunoreactivity | slightly increased | no significant changes were observed; also recorded: no significant differences were confirmed | Significant STAT3 phosphorylation was observed; also recorded: Hippocampus-predominant STAT3 phosphorylation | No significant differences were observed; also recorded: no significant changes were observed | activates in vitro STAT3 so as to suppress cell death
B1 | STAT3 had been phosphorylated; also recorded: STAT3 is phosphorylated | – | – | – | – | – | – | – | – | –
